Data as given in the PolyMetriX glass transition set.
± gives the standard deviation of the reports.

Question: For `*Oc1ccc(NC(=O)c2cccc(C(=O)Nc3ccc(Oc4ccc(C5(c6ccc(*)cc6)CC6CCC5C6)cc4)cc3)c2)cc1` (repeat unit), which glass transition temperature is on record?
Answer: 256.00 °C

Question: For `*CCCC(C)(C)CNC(=O)c1ccc(C(=O)N*)cc1` (repeat unit), which glass transition temperature is on record?
Answer: 157.00 °C

Question: Which glass transition temperature does the source give for `*NC(CCC(=O)OCCCCCCCC)C(*)=O` (repeat unit) here?
Answer: -59.50 °C

Question: For `*N=P(N=P(/N=S(/*)Oc1ccc(C(C)(C)C)cc1)(Oc1ccc(-c2ccccc2)cc1)Oc1ccc(-c2ccccc2)cc1)(Oc1ccc(-c2ccccc2)cc1)Oc1ccc(-c2ccccc2)cc1` (repeat unit), which glass transition temperature is on record?
Answer: 54.00 °C

Question: Which glass transition temperature does the source give for `*c1ccc(OC(=O)c2ccc(C(=O)Oc3ccc(-c4nc5ccccc5nc4*)cc3)cc2)cc1` (repeat unit) here?
Answer: 232.00 °C

Question: For `*c1ccc(Oc2ccc(-c3ccc(Oc4ccc(-n5c(=O)c6cc7c(=O)n(*)c(=O)c7cc6c5=O)cc4)cc3)cc2)cc1` (repeat unit), which glass transition temperature is on record?
Answer: 300.00 °C

Question: With `*CCCCCC(=O)Oc1ccc(OC(=O)CCCCCn2c(=O)c3cc4c(=O)n(*)c(=O)c4cc3c2=O)c(-c2ccccc2)c1` (repeat unit) as the compound, how does the glass transition temperature read?
Answer: 82.00 °C

Question: Which glass transition temperature does the source give for `*/C=C/c1ccc2c(c1)Sc1cc(*)ccc1N2c1ccc(OCCCCCCCCCCCC)cc1` (repeat unit) here?
Answer: 129.00 °C

Question: With `*CCCCCCCCCCOc1ccc(N(c2ccccc2)c2ccc(-c3ccc(N(c4ccccc4)c4ccc(O*)cc4)cc3)cc2)cc1` (repeat unit) as the compound, how does the glass transition temperature read?
Answer: 90.00 °C

Question: With `*Oc1ccc(OC(=O)c2cc(OCCCCCCCCCCCC)c(C(*)=O)cc2OCCCCCCCCCCCC)cc1-c1ccccc1` (repeat unit) as the compound, how does the glass transition temperature read?
Answer: 96.00 °C

Remark: another data set of the same source

Question: With `*C1=C(Cl)C(=O)N(c2ccc(Cc3ccc(N4C(=O)C(Cl)=C(Oc5ccc(*)cc5)C4=O)cc3)cc2)C1=O` (repeat unit) as the compound, how does the glass transition temperature read?
Answer: 192.00 °C

Question: Which glass transition temperature does the source give for `*Oc1ccc(C(c2ccc(Oc3ccc4c(c3)C(=O)N(CCCCN3C(=O)c5ccc(*)cc5C3=O)C4=O)cc2)(C(F)(F)F)C(F)(F)F)cc1` (repeat unit) here?
Answer: 180.00 °C

Question: Which glass transition temperature does the source give for `*Sc1cccc2c1C(=O)N(c1ccc(Oc3ccc(Oc4ccc(N5C(=O)c6cccc(*)c6C5=O)cc4)cc3)cc1)C2=O` (repeat unit) here?
Answer: 250.00 °C

Question: For `*c1ccc2c(c1)C(=O)N(c1ccc(-c3ccc(N4C(=O)c5ccc(C(*)(C(F)(F)F)C(F)(F)F)cc5C4=O)cc3C)c(C)c1)C2=O` (repeat unit), which glass transition temperature is on record?
Answer: 325.00 °C

Question: Which glass transition temperature does the source give for `*C(=O)c1ccc2c(c1)C(=O)N(c1ccc(C)c(N3C(=O)c4ccc(*)cc4C3=O)c1C)C2=O` (repeat unit) here?
Answer: 384.00 °C

Question: Which glass transition temperature does the source give for `*Sc1ccc2c(c1)C(=O)N(c1ccc(Oc3ccc4ccccc4c3-c3c(Oc4ccc(N5C(=O)c6ccc(*)cc6C5=O)cc4C(F)(F)F)ccc4ccccc34)c(C(F)(F)F)c1)C2=O` (repeat unit) here?
Answer: 273.00 °C

Question: Which glass transition temperature does the source give for `*c1cccc(Oc2ccc(P(=O)(c3ccccc3)c3ccc(Oc4ccc(N5C(=O)c6ccc(-c7ccc8c(c7)C(=O)N(*)C8=O)cc6C5=O)cc4)cc3)cc2)c1` (repeat unit) here?
Answer: 241.00 °C

Question: For `*c1ccc2c(c1)C(=O)N(c1cc(N3C(=O)c4ccc(S(*)(=O)=O)cc4C3=O)cc(C(F)(F)F)c1)C2=O` (repeat unit), which glass transition temperature is on record?
Answer: 310.00 °C

Question: Which glass transition temperature does the source give for `*c1ccc(Oc2ccc(Oc3ccc(-n4c(=O)c5ccc6c(=O)n(*)c(=O)c6c5c4=O)cc3)cc2)cc1` (repeat unit) here?
Answer: 292.00 °C

Question: For `*c1ccc(Oc2ccc(C(C)(C)c3ccc(Oc4ccc(-n5c(=O)c6cc7c(=O)n(*)c(=O)c7cc6c5=O)cc4)cc3)cc2)cc1` (repeat unit), which glass transition temperature is on record?
Answer: 283.00 °C

Question: With `*Oc1cccc(Oc2ccc(Oc3ccc4c(c3)C(=O)N(c3cccc(N5C(=O)c6ccc(*)cc6C5=O)c3)C4=O)cc2)c1` (repeat unit) as the compound, how does the glass transition temperature read?
Answer: 227.00 °C

Question: For `*c1ccc2c(c1)C(=O)N(c1ccc(Oc3c(F)c(F)c(-c4c(F)c(F)c(Oc5ccc(N6C(=O)c7ccc(C(*)(C(F)(F)F)C(F)(F)F)cc7C6=O)cc5)c(F)c4F)c(F)c3F)cc1)C2=O` (repeat unit), which glass transition temperature is on record?
Answer: 271.20 °C

Question: For `*c1ccc2c(c1)C(=O)N(c1cc(N3C(=O)c4ccc(*)cc4C3=O)cc(C(F)(F)F)c1)C2=O` (repeat unit), which glass transition temperature is on record?
Answer: 329.00 °C

Question: Which glass transition temperature does the source give for `*c1ccc2c(c1)C(=O)N(c1ccc(OCC(F)(F)C(F)(F)C(F)(F)C(F)(F)C(F)(F)C(F)(F)C(F)(F)C(F)(F)C(F)(F)C(F)(F)F)c(N3C(=O)c4ccc(C(*)(C(F)(F)F)C(F)(F)F)cc4C3=O)c1)C2=O` (repeat unit) here?
Answer: 189.00 °C

Question: For `*Oc1ccc2c(c1)C(=O)N(c1ccc(Sc3ccc(N4C(=O)c5ccc(*)cc5C4=O)cc3)cc1)C2=O` (repeat unit), which glass transition temperature is on record?
Answer: 269.00 °C

Question: With `*c1ccc(P(=O)(c2ccccc2)c2ccc(-n3c(=O)c4cc5c(=O)n(*)c(=O)c5cc4c3=O)cc2)cc1` (repeat unit) as the compound, how does the glass transition temperature read?
Answer: 425.00 °C

Question: For `*c1ccc2c(c1)C(=O)N(c1cc(C(F)(F)F)cc(N3C(=O)c4ccc(C(*)(C(F)(F)F)C(F)(F)F)cc4C3=O)c1OC(c1c(F)c(F)c(F)c(F)c1F)c1c(F)c(F)c(F)c(F)c1F)C2=O` (repeat unit), which glass transition temperature is on record?
Answer: 321.70 °C

Question: Which glass transition temperature does the source give for `*Oc1cccc(Oc2ccc(Oc3ccc4c(c3)C(=O)N(c3ccc(Oc5cccc(Oc6ccc(N7C(=O)c8ccc(*)cc8C7=O)cc6)c5)cc3)C4=O)cc2)c1` (repeat unit) here?
Answer: 184.00 °C

Question: For `*Oc1cccc(C(C)(C)c2ccc(Oc3cccc4c3C(=O)N(c3ccc(Oc5cccc(Oc6ccc(N7C(=O)c8cccc(*)c8C7=O)cc6)c5)cc3)C4=O)cc2)c1` (repeat unit), which glass transition temperature is on record?
Answer: 202.00 °C

Question: Which glass transition temperature does the source give for `*Oc1ccc(Sc2ccc(Oc3ccc4c(c3)C(=O)N(c3cc(N5C(=O)c6ccc(*)cc6C5=O)cc(C(F)(F)F)c3)C4=O)cc2)cc1` (repeat unit) here?
Answer: 218.00 °C

Question: With `*C(=O)Nc1ccc2ccccc2c1-c1c(NC(=O)c2ccc3c(c2)C(=O)N(c2ccc(Oc4ccc(N5C(=O)c6ccc(*)cc6C5=O)cc4)cc2)C3=O)ccc2ccccc12` (repeat unit) as the compound, how does the glass transition temperature read?
Answer: 287.80 °C

Question: With `*Oc1cccc(Sc2ccc(Oc3ccc4c(c3)C(=O)N(c3cccc(N5C(=O)c6ccc(*)cc6C5=O)c3)C4=O)cc2)c1` (repeat unit) as the compound, how does the glass transition temperature read?
Answer: 209.00 °C

Question: For `*C1=C(Cl)C(=O)N(c2ccc(Cc3ccc(N4C(=O)C(Cl)=C(Oc5ccc(C(C)(C)c6ccc(*)cc6)cc5)C4=O)cc3)cc2)C1=O` (repeat unit), which glass transition temperature is on record?
Answer: 173.00 °C

Question: With `*C(=O)c1cccc(Cc2ccc3c(c2)C(=O)N(c2cc(N4C(=O)c5ccc(*)cc5C4=O)cc(C(F)(F)F)c2)C3=O)c1` (repeat unit) as the compound, how does the glass transition temperature read?
Answer: 253.00 °C

Question: For `*c1ccc2c(c1)C(=O)N(c1ccc(OCC(F)(F)C(F)(F)C(F)(F)C(F)(F)C(F)(F)C(F)(F)C(F)(F)F)c(N3C(=O)c4ccc(C(*)(C(F)(F)F)C(F)(F)F)cc4C3=O)c1)C2=O` (repeat unit), which glass transition temperature is on record?
Answer: 226.00 °C

Question: With `*c1ccc2c(c1)C(=O)N(c1ccc(-c3ccc(N4C(=O)c5ccc(C(*)(C(F)(F)F)C(F)(F)F)cc5C4=O)cc3-c3cc(C(F)(F)F)cc(C(F)(F)F)c3)c(-c3cc(C(F)(F)F)cc(C(F)(F)F)c3)c1)C2=O` (repeat unit) as the compound, how does the glass transition temperature read?
Answer: 263.00 °C

Question: For `*Sc1cccc2c1C(=O)N(c1cc(Cc3ccc(N4C(=O)c5cccc(*)c5C4=O)c(C)c3)ccc1C)C2=O` (repeat unit), which glass transition temperature is on record?
Answer: 274.00 °C

Question: For `*Oc1cccc(C(C)(C)c2ccc(Oc3ccc4c(c3)C(=O)N(c3ccc(Oc5cccc(Oc6ccc(N7C(=O)c8ccc(*)cc8C7=O)cc6)c5)cc3)C4=O)cc2)c1` (repeat unit), which glass transition temperature is on record?
Answer: 178.00 °C

Question: With `*Oc1cccc(C(=O)c2ccc(Oc3cccc4c3C(=O)N(c3ccc(Oc5ccc(N6C(=O)c7cccc(*)c7C6=O)cc5)cc3)C4=O)cc2)c1` (repeat unit) as the compound, how does the glass transition temperature read?
Answer: 252.00 °C

Question: For `*c1ccc2c(c1)C(=O)N(c1ccc(-c3ccc(N4C(=O)c5ccc(C(*)(C(F)(F)F)C(F)(F)F)cc5C4=O)cc3C#N)c(C#N)c1)C2=O` (repeat unit), which glass transition temperature is on record?
Answer: 331.00 °C

Question: For `*Sc1ccc2c(c1)C(=O)N(c1ccc(Oc3ccc(N4C(=O)c5cccc(*)c5C4=O)cc3)cc1)C2=O` (repeat unit), which glass transition temperature is on record?
Answer: 267.50 ± 8.4 °C

Question: Which glass transition temperature does the source give for `*c1cc(N2C(=O)c3ccc(-c4ccc5c(c4)C(=O)N(*)C5=O)cc3C2=O)ccc1OCC(F)(F)C(F)(F)C(F)(F)C(F)(F)C(F)(F)C(F)(F)C(F)(F)C(F)(F)C(F)(F)C(F)(F)F` (repeat unit) here?
Answer: 230.00 °C

Question: Which glass transition temperature does the source give for `*c1cccc2c1C(=O)N(c1ccc(C3(c4ccc(N5C(=O)c6cccc(*)c6C5=O)c(C)c4)c4ccccc4-c4ccccc43)cc1C)C2=O` (repeat unit) here?
Answer: 313.00 ± 2.8 °C

Question: Which glass transition temperature does the source give for `*Oc1ccc2c(c1)C(=O)N(c1cccc(C(=O)c3cccc(N4C(=O)c5ccc(*)cc5C4=O)c3)c1)C2=O` (repeat unit) here?
Answer: 239.00 ± 4 °C

Question: For `*c1cc(N2C(=O)c3ccc(-c4ccc5c(c4)C(=O)N(*)C5=O)cc3C2=O)ccc1OCC(F)(F)C(F)(F)C(F)(F)F` (repeat unit), which glass transition temperature is on record?
Answer: 300.00 °C

Question: For `*c1ccc(-c2ccc(N3C(=O)c4cc5c(cc4C3=O)C(C(F)(F)F)(C(F)(F)F)c3cc4c(cc3O5)C(=O)N(*)C4=O)cc2OC(C)(F)F)c(OC(C)(F)F)c1` (repeat unit), which glass transition temperature is on record?
Answer: 363.00 °C

Question: Which glass transition temperature does the source give for `*C(=O)c1ccc2c(c1)C(=O)N(c1ccc(Oc3cccc(N4C(=O)c5ccc(*)cc5C4=O)c3)cc1)C2=O` (repeat unit) here?
Answer: 252.00 °C
